Measurements reported in the supplement of paper PMC7394473.

Columns and labels:
Conditions in all cases: 72 h
[1] = tested on: U2OS; test: normalized growth rate inhibition value (GR) relative to untreated cells (GR value (dimensionless, 1 = untreated growth)); higher = less growth inhibition
Procedure: (§1)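 U2OS::Nuc-mKate2 cells seeded in 96-well plates and treated with eight- to ten-point half-log or log dilutions of drug in the presence of 50 nM SYTOX Green. Live (mKate2+) and dead (SYTOX+) cells were counted by IncuCyte STACK live-cell microscopy at 72 h; biological triplicates. GR is the normalised growth-rate inhibition value (Hafner 2016; 1 = untreated growth, <0 = population shrinking). FV is live/(live+dead) cells, not normalised.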

[2] = tested on: U2OS; test: drug GRADE (percent of response due to cell death) (% (0-100)); higher = more death-driven response
Procedure: (§2)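 U2OS cells treated with full dose titrations of drug; live and dead cells counted by STACK microscopy (mKate2 nuclei, SYTOX Green) at 72 h, biological triplicates. GR and FV dose responses were fitted with 4-parameter logistic models (GR lower bound -1). GRADE (0-100) is the rescaled angle of a linear fit of FV versus GR at doses with GR >= 0, giving the percentage of the response due to cell death.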

[3] = tested on: U2OS; test: fractional viability (live cells / total cells); higher = less cell death
Procedure: as §1

[4] = tested on: U2OS; test: GR50 (concentration giving GR = 0.5)
Procedure: as §2

[5] = tested on: U2OS; test: GRmin (fitted minimal GR value at highest effect) (GR value (dimensionless)); higher = less efficacious
Procedure: as §2

[6] = tested on: U2OS; test: FV IC50 (concentration giving fractional viability 0.5); higher = less potent killing
Procedure: as §2

Compound | normalized growth rate inhibition value ([1]; 0.01 µM) | normalized growth rate inhibition value ([1]; 0.0316 µM) | normalized growth rate inhibition value ([1]; 0.1 µM) | normalized growth rate inhibition value ([1]; 0.316 µM) | normalized growth rate inhibition value ([1]; 1 µM) | normalized growth rate inhibition value ([1]; 3.16 µM) | normalized growth rate inhibition value ([1]; 10 µM) | normalized growth rate inhibition value ([1]; 31.6 µM) | drug GRADE [2] | fractional viability ([3]; 0.01 µM) | fractional viability ([3]; 0.0316 µM) | fractional viability ([3]; 0.1 µM) | fractional viability ([3]; 0.316 µM) | fractional viability ([3]; 1 µM) | fractional viability ([3]; 3.16 µM) | fractional viability ([3]; 10 µM) | fractional viability ([3]; 31.6 µM) | GR50 [4] [µM] | GRmin [5] | normalized growth rate inhibition value ([1]; 0.00100578 µM) | further results
Cc1ccc(Nc2nccc(N(C)c3ccc4c(C)n(C)nc4c3)n2)cc1S(N)(=O)=O [Pazopanib] | 0.995 | 1.04 | 1.07 | 1 | 1.04 | 0.915 | 0.68 | 0.431 | 47.8 | 0.98 | 0.986 | 0.98 | 0.978 | 0.979 | 0.978 | 0.917 | 0.763 | 19.9 | 0.369 | – | –
CS(=O)(=O)N1CCN(Cc2cc3nc(-c4cccc5[nH]ncc45)nc(N4CCOCC4)c3s2)CC1 [Pictilisib] | – | – | – | – | – | – | 0.455 | – | 30.9 | – | – | – | – | – | – | 0.854 | – | 1.48 | 0.374 | 1.02 | normalized growth rate inhibition value ([1]; 0.00317827 µM): 0.948; normalized growth rate inhibition value ([1]; 0.0100433 µM): 0.953; normalized growth rate inhibition value ([1]; 0.0317369 µM): 0.837; normalized growth rate inhibition value ([1]; 0.100289 µM): 0.872; normalized growth rate inhibition value ([1]; 0.316912 µM): 0.842; normalized growth rate inhibition value ([1]; 1.00144 µM): 0.628; normalized growth rate inhibition value ([1]; 3.16456 µM): 0.306; fractional viability ([3]; 0.00100578 µM): 0.988; fractional viability ([3]; 0.00317827 µM): 0.989; fractional viability ([3]; 0.0100433 µM): 0.985; fractional viability ([3]; 0.0317369 µM): 0.985; fractional viability ([3]; 0.100289 µM): 0.975; fractional viability ([3]; 0.316912 µM): 0.96; fractional viability ([3]; 1.00144 µM): 0.936; fractional viability ([3]; 3.16456 µM): 0.844
Cc1cc2c(C(=O)NC[C@H](C)c3ccccc3)c(O)c(O)cc2c(O)c1-c1c(C)cc2c(C(=O)NC[C@H](C)c3ccccc3)c(O)c(O)cc2c1O [Sabutoclax] | 0.995 | 0.971 | 1.12 | 0.844 | 0.77 | 0.533 | 0.175 | -0.0541 | 27.4 | 0.979 | 0.983 | 0.982 | 0.975 | 0.982 | 0.936 | 0.878 | 0.681 | 3.32 | -0.234 | – | –
CN1CCN(CCOc2cc(OC3CCOCC3)c3c(Nc4c(Cl)ccc5c4OCO5)ncnc3c2)CC1 [Saracatinib] | – | – | – | – | – | – | 0.205 | – | 28.7 | – | – | – | – | – | – | 0.833 | – | 2.59 | -0.134 | 1.02 | normalized growth rate inhibition value ([1]; 0.00317827 µM): 1.04; normalized growth rate inhibition value ([1]; 0.0100433 µM): 1; normalized growth rate inhibition value ([1]; 0.0317369 µM): 0.977; normalized growth rate inhibition value ([1]; 0.100289 µM): 0.978; normalized growth rate inhibition value ([1]; 0.316912 µM): 0.823; normalized growth rate inhibition value ([1]; 1.00144 µM): 0.608; normalized growth rate inhibition value ([1]; 3.16456 µM): 0.528; fractional viability ([3]; 0.00100578 µM): 0.989; fractional viability ([3]; 0.00317827 µM): 0.989; fractional viability ([3]; 0.0100433 µM): 0.987; fractional viability ([3]; 0.0317369 µM): 0.986; fractional viability ([3]; 0.100289 µM): 0.98; fractional viability ([3]; 0.316912 µM): 0.965; fractional viability ([3]; 1.00144 µM): 0.929; fractional viability ([3]; 3.16456 µM): 0.915
O=C1NC(=O)[C@@H](c2cn3c4c(cccc24)CCC3)[C@@H]1c1c[nH]c2ccccc12 [Tivantinib] | – | – | – | – | – | – | -0.3 | – | 42.8 | – | – | – | – | – | – | 0.481 | – | 0.169 | -0.31 | 0.95 | normalized growth rate inhibition value ([1]; 0.00317827 µM): 1.03; normalized growth rate inhibition value ([1]; 0.0100433 µM): 0.977; normalized growth rate inhibition value ([1]; 0.0317369 µM): 0.86; normalized growth rate inhibition value ([1]; 0.100289 µM): 0.598; normalized growth rate inhibition value ([1]; 0.316912 µM): 0.299; normalized growth rate inhibition value ([1]; 1.00144 µM): 0.049; normalized growth rate inhibition value ([1]; 3.16456 µM): -0.107; fractional viability ([3]; 0.00100578 µM): 0.99; fractional viability ([3]; 0.00317827 µM): 0.991; fractional viability ([3]; 0.0100433 µM): 0.986; fractional viability ([3]; 0.0317369 µM): 0.988; fractional viability ([3]; 0.100289 µM): 0.975; fractional viability ([3]; 0.316912 µM): 0.844; fractional viability ([3]; 1.00144 µM): 0.613; fractional viability ([3]; 3.16456 µM): 0.683
CCC(=O)N1CCN(c2ccc(-n3c(=O)ccc4cnc5ccc(-c6cnc7ccccc7c6)cc5c43)cc2C(F)(F)F)CC1 [Torin 1] | 1.02 | 0.896 | 0.749 | 0.525 | 0.404 | 0.275 | 0.147 | 0.114 | 21.4 | 0.977 | 0.976 | 0.966 | 0.954 | 0.937 | 0.917 | 0.895 | 0.792 | 0.473 | 0.106 | – | –
CC[C@]1(O)C[C@H]2CN(CCc3c([nH]c4ccccc34)[C@@](C(=O)OC)(c3cc4c(cc3OC)N(C=O)[C@H]3[C@@](O)(C(=O)OC)[C@H](OC(C)=O)[C@]5(CC)C=CCN6CC[C@]43[C@@H]65)C2)C1 [Vincristine] | – | 0.0808 | – | 0.0568 | – | -0.0172 | – | 0.0544 | 67.6 | – | 0.426 | – | 0.472 | – | 0.427 | – | 0.415 | – | 0.000271 | – | FV IC50 [6]: 0.0107 µM; normalized growth rate inhibition value ([1]; 0.00316 µM): 0.251; fractional viability ([3]; 0.00316 µM): 0.548
CC[C@@H]1C(=O)N(C)c2cnc(Nc3ccc(C(=O)N[C@H]4CC[C@H](N5CCN(CC6CC6)CC5)CC4)cc3OC)nc2N1C(C)C [Volasertib] | – | – | – | – | -0.259 | – | – | – | 17.9 | – | – | – | – | 0.548 | – | – | – | 0.0162 | -0.24 | – | normalized growth rate inhibition value ([1]; 0.000100578 µM): 0.973; normalized growth rate inhibition value ([1]; 0.000317827 µM): 1.07; normalized growth rate inhibition value ([1]; 0.00100433 µM): 1.1; normalized growth rate inhibition value ([1]; 0.00317369 µM): 1; normalized growth rate inhibition value ([1]; 0.0100289 µM): 0.717; normalized growth rate inhibition value ([1]; 0.0316912 µM): 0.122; normalized growth rate inhibition value ([1]; 0.100144 µM): -0.136; normalized growth rate inhibition value ([1]; 0.316456 µM): -0.25; fractional viability ([3]; 0.000100578 µM): 0.988; fractional viability ([3]; 0.000317827 µM): 0.986; fractional viability ([3]; 0.00100433 µM): 0.987; fractional viability ([3]; 0.00317369 µM): 0.986; fractional viability ([3]; 0.0100289 µM): 0.964; fractional viability ([3]; 0.0316912 µM): 0.86; fractional viability ([3]; 0.100144 µM): 0.725; fractional viability ([3]; 0.316456 µM): 0.563
